Assay results as given in US8461389B2, “Psycho-pharmaceuticals” (University College Dublin, National University of Ireland, …, priority 2008, dated 2013).

Tested on: C57B16 mice
Test: Forced swim test
Format: in vivo
Conditions: 3 mg/kg and 5 mg/kg; n=8; FIG. 10B
Description: • 1. Fill a 12 cm diameter glass cylinder to 10 cm with 22° C. water. • 2. Place two animals simultaneously in individual side-by-side cylinders separated by an opaque screen. • 3. Place mice in the cylinders for 6 minutes. • 4. Observe the behaviour of the mice for the last 4-minutes of the 6-minute experimental session. • 5. Sessions are videotaped and scored blind, Immobility is scored by summing the time spent immobile; movements necessary to maintain the animals head above water were not scored with data from treated groups compared with data from the control group using nonpaired Student's t tests (two tailed). • 6. Animals are dried with paper towels and heat lamps. FST in Rats: Habituation Session (Day 1) • 1. On Day 1, […] prior to testing, place the animals in the experimental room 60 min before the beginning of the habituation session. Randomly assign animals to a drug treatment, but give all animals within a cage the same treatment. Make food and water available throughout the experiment. • 2. Weigh two animals individually, then place one rat in each of the two cylinders (20 cm in diameter×40 cm high) containing water (25° C.) for 15 min (habituation session). No scoring of immobility is performed during the habituation session. […]
Values are expressed as mean±S.E.M (n=8). Statistical difference was determined using a Mann Whitney non-parametric U-test. […]

Compound: CCCCSc1ccc(C(SCCN(C)C)c2ccccc2)cc1 (single isomer, unassigned) [dextrorotary (+) enantiomer]
- antidepressant activity of separated enantiomer (time spent immobile, forced swim test): retains the antidepressant biologic activity
